According to PubChem BioAssay (NCI):
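Results reflect a 48-hour exposure of cells in 96-well plates to compound at five concentrations. At the TGI there is no net growth.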

What was measured:
Experiment in all cases: DTP human tumour cell line panel, 48 h
786-0 renal = tested on: 786-0 renal
A498 renal = tested on: A498 renal
A549 NSCLC = tested on: A549 NSCLC
ACHN renal = tested on: ACHN renal
BT-549 breast = tested on: BT-549 breast
CAKI-1 renal = tested on: CAKI-1 renal
CCRF-CEM leukemia = tested on: CCRF-CEM leukemia
COLO 205 colon = tested on: COLO 205 colon
EKVX NSCLC = tested on: EKVX NSCLC
HCC-2998 colon = tested on: HCC-2998 colon
HCT-116 colon = tested on: HCT-116 colon
HCT-15 colon = tested on: HCT-15 colon
HOP-62 NSCLC = tested on: HOP-62 NSCLC
HOP-92 NSCLC = tested on: HOP-92 NSCLC
HT29 colon = tested on: HT29 colon
IGROV1 ovarian = tested on: IGROV1 ovarian
K-562 leukemia = tested on: K-562 leukemia
KM12 colon = tested on: KM12 colon
LOX IMVI melanoma = tested on: LOX IMVI melanoma
M14 melanoma = tested on: M14 melanoma
MALME-3M melanoma = tested on: MALME-3M melanoma
MCF7 breast = tested on: MCF7 breast
MDA-MB-231 breast = tested on: MDA-MB-231 breast
MDA-MB-435 = tested on: MDA-MB-435
MDA-N = tested on: MDA-N
MOLT-4 leukemia = tested on: MOLT-4 leukemia
NCI-H226 lung = tested on: NCI-H226 lung
NCI-H23 lung = tested on: NCI-H23 lung
NCI-H460 lung = tested on: NCI-H460 lung
NCI-H522 lung = tested on: NCI-H522 lung
NCI/ADR-RES ovarian = tested on: NCI/ADR-RES ovarian
OVCAR-3 ovarian = tested on: OVCAR-3 ovarian
OVCAR-4 ovarian = tested on: OVCAR-4 ovarian
OVCAR-5 ovarian = tested on: OVCAR-5 ovarian
OVCAR-8 ovarian = tested on: OVCAR-8 ovarian
PC-3 prostate = tested on: PC-3 prostate
RPMI-8226 leukemia = tested on: RPMI-8226 leukemia
RXF 393 renal = tested on: RXF 393 renal
SF-295 CNS = tested on: SF-295 CNS
SF-539 CNS = tested on: SF-539 CNS
SK-MEL-2 melanoma = tested on: SK-MEL-2 melanoma
SK-MEL-5 melanoma = tested on: SK-MEL-5 melanoma
SK-OV-3 ovarian = tested on: SK-OV-3 ovarian
SN12C renal = tested on: SN12C renal
SNB-19 CNS = tested on: SNB-19 CNS
SR leukemia = tested on: SR leukemia
SW-620 colon = tested on: SW-620 colon
T-47D breast = tested on: T-47D breast
TK-10 renal = tested on: TK-10 renal
U251 CNS = tested on: U251 CNS
UACC-257 melanoma = tested on: UACC-257 melanoma
UACC-62 melanoma = tested on: UACC-62 melanoma
UO-31 renal = tested on: UO-31 renal
DU-145 prostate = tested on: DU-145 prostate
HL-60(TB) leukemia = tested on: HL-60(TB) leukemia
HS 578T breast = tested on: HS 578T breast
SF-268 CNS = tested on: SF-268 CNS
SK-MEL-28 melanoma = tested on: SK-MEL-28 melanoma
SNB-75 CNS = tested on: SNB-75 CNS

Measured: TGI

CCOC(=O)Nn1cnnc1C
not listed: DU-145 prostate | HL-60(TB) leukemia | HS 578T breast | SF-268 CNS | SK-MEL-28 melanoma | SNB-75 CNS
> 100 µM: all other assays above

N#Cc1nc(-c2ccccc2C(=O)O)oc1N
not listed: BT-549 breast
> 100 µM: all other assays above
